# Reference: patent US8329681B2, “Methods and compositions for the efficient delivery of therapeutic agents to cells and animals” (University of Massachusetts, priority 2005, dated 2012)
# Columns and labels:
# [1] = system: A549 cells; assay: Transfection of pSV-β-gal plasmid, β-galactosidase reporter activity; format: cell-based, human
# Description: (§1) Cationic lipids and the co-lipids in chloroform were dried under a stream of N2 gas and vacuum-desiccated for a minimum of 6 h to remove residual organic solvent. The dried lipid film was hydrated in sterile deionized water at cationic lipid concentration of 1 mM for a minimum of 12 h. Liposomes were vortexed to remove any adhering lipid film and probe sonicated until a clear translucent solution is formed. The pDNA solution was added to the liposomes, mixed properly by pipeting and shaken on a rotary shaker (15-30 mins.) before use.
# (§2) Cells were seeded at a density of 20,000 (for HeLa cells), 16,000 (for A-549 cells), 8,000 (for FL83B cells) per well in a 96-well plate 18-24 h before transfection. An amount of 0.30 μg of pDNA was complexed with varying amounts of lipids (to give +/− ratios of 0.3:1, 1:1, 3:1 and 9:1) in plain OPTIMEM (total volume made up to 100 μl) and then shaken on a rotary shaker at room temperature for 20-30 minutes. The complexes were then added to the cells. After 5 h of incubation, 200 μl of complete medium containing 10% FBS in DMEM for HeLa and 10% FBS in F-12K for FL83B and A549 was added to the cells. The medium was changed after 24 h and the reporter gene activity was estimated 48 h after transfection. Cells were washed with PBS (100 μl) and lysed in […] lysis buffer (5× reporter lysis buffer diluted to 1×, working concentration). The β-galactosidase activity per well was estimated by adding 50 μl of 2× substrate solution (1.33 mg/ml of ONPG, 0.2 M sodium phosphate, pH 7.15 and 2 mM magnesium chloride) to the lysate in a 96-well plate. Absorbance of the product ortho-nitrophenol was measured at 420 nm. The absorbance values reported are the average values from two replicate experiments performed in the same plate on the same day. Each transfection experiment was performed three times on three different days to control for variations in transfection efficiency.
# (§3) Briefly, the efficacy of various lipid formulations were tested in three cell lines A-549, FL83B and HeLa cells and the transfection efficiencies of the cationic liposomal formulations were compared with a commercially available transfection reagent (e.g., Lipofectamine 2000).
# [2] = system: HeLa cells; assay: as above; format: cell-based, human
# Description: as §1, §2, §3
# [3] = system: FL83B cells; assay: as above; format: cell-based, rat
# Description: as §1, §2, §3
# [4] = system: CDK9 expression; assay: In vivo delivery of CDK9 siRNA with liposome by tail vein injection, CDK9 expression in spleen; design: species or system BALB/c mice; conditions: Cy3-labeled CDk9 siRNA (25 μg) and liposome (125 μg), repeated 4 and 8 h later, within the initial 24 h after treatment
# Description: Total RNA was extracted from tissues or cultured cells using Trizol (Invitrogen, Carlsbad, Calif.), and real-time RT-PCR for CDK9 and GAPDH mRNA quantification was carried out using 200 ng of total RNA and the QuantiTect SYBR Green RT-PCR Kit (Qiagen, Valencia, Calif.) according to the manufacturer's instructions. The ratio of CDK9 and GAPDH mRNA was calculated and expressed as a group average relative to the control group. The specific probe for detection of CDK9 mRNA levels was designed to the following regions of the CDK9 mRNA ORF, the forward primer 5′ TCGGACCAA AGCCTCACCGTATAA 3′, the reverse primer 5′ […] TTG 3′
# Male BALB/c mice, 6-8 weeks of age and weighting 20-22 g, were purchased form the Jackson Laboratory (Bar Harbor, Me.). Synthetic siRNA were delivered in vivo using following method. For each mice 25 μg of siRNA in 100 μl of HEPES Buffered Saline (20 mM HEPES, 150 mM NaCl, pH 7.4) was transferred into a sterile tube. In a separate sterile tube 125 μg of liposome was mixed with 200 μl HEPES Buffered Saline. The siRNA solution was transferred to the tube containing liposome solution and then incubated at room temperature for 20 minutes. 200 μl of the complexes was injected via the tail vein, using a 1-ml syringe and 27-gauge needle. The injection was repeated 4 and 8 h later. Control mice were injected with an equal volume of liposome. At 24 h after the last injection, the mice were sacrificed and tissues were harvested for further analysis. CDK9 expression level was normalized with GAPDH and then compared to those obtained from control animals and shown as percent expression. The data represent the mean value +/− SD of three to five mice in each group.
# Briefly, the ability of the new synthesized liposome to deliver siRNA in mice was investigated. BALB/c mice were administrated with complexes of Cy3-labeled CDk9 siRNA (25 μg) and liposome (125 μg) via normal pressure tail vein injection. The injection was repeated 4 and 8 h later. Control mice were administrated with an equal amount of liposome. […]
# [5] = system: A-549, FL83B and HeLa cells; assay: Transfection of pSV-β-gal plasmid, overall statement without cell line; format: cell-based; conditions: alone without any co-lipids
# Description: as §2, with “efficiency. […]” for “efficiency.”
# [6] = alone, lipid:DNA charge ratios 1:1 and 0.3:1
# [7] = in combination with DOPE, charge ratio 3:1
smiles,measurement,setting,value
"CCCCCCCCC=CCCCCCCCC(=O)OC(COC(=O)CCC(=O)OC1CCC2(C)C(=CCC3C2CCC2(C)C(C(C)CCCC(C)C)CCC32)C1)C[N+](C)(C)C.[I-] (centres unmarked) [Lipid 8, N,N,N-Trimethyl-N-[2-(9(Z)-octadecanoyloxy),3-succinyloxy(4-cholesteryloxy)-propyl]ammonium iodide]",transfection efficiency compared with Lipofectamine 2000,[1]; [6],one fold less
same,"transfection efficiency, fold less than Lipofectamine 2000",[1]; in combination with DOPC,about 1 fold
same,transfection efficiency compared with Lipofectamine 2000,[1]; [7],comparable
same,"transfection efficiency, fold less than Lipofectamine 2000",[2]; [6],~1.5 fold
same,transfection efficiency compared with Lipofectamine 2000,"[2]; in combination with DOPC, charge ratio of 1.1",comparable
same,"transfection efficiency, fold less than Lipofectamine 2000",[2]; [7],more than 1.5 fold
same,transfection efficiency compared with Lipofectamine 2000,[3]; [6],one fold less
same,transfection efficiency compared with Lipofectamine 2000,"[3]; in combination with DOPC, charge ratio 9.0:1.0 to 0.3:1.0",about two fold less
same,"transfection efficiency, fold less than Lipofectamine 2000",[3]; [7],more than 1.5 fold
same,CDK9 expression level in the spleen decreased by,[4],28%
same,transfection efficiency of lipid alone compared with lipid in combination with DOPE and DOPC,[5],about as efficient
